Assay results reported in patent publication US20200061076A1, “METHODS OF TREATING LEUKODYSTROPHIES” (Ramot at Tel-Aviv University Ltd., priority 2017, published 2020).

Columns and labels:
Mut MEFs = assay: Cell survival assay, Crystal violet staining, Mut MEFs; assay type: cell-based, mouse; conditions: for Survival (%) ± SEM Mut MEFs: 24 hours, untreated cells set to 100%
Method: (§1) Cells were seeded on 96-wells plate at a density of 5000 cells per well. Astrocytes were seeded following coating with 0.001% PDL.

[1] = test system: Mut MEFs (primary fibroblasts from Eif2b5 R132H/R132H mice); assay: Image-based single cell analysis of ROS level (cellROX); design: species or system mouse; conditions: 10 μM, 24 hours incubation, compared with WT level (FIG. 3)
Method: Mut MEFs were treated with the indicated compounds at 10 μM for 24 hours followed by staining with fluorogenic dyes and image-based single-cell analysis. Shown is average effect on ROS level from at least 3-independent experiments ±SEM. All values are statistically significant, p<0.02. The extreme SEM points of all values are below the 90% cut-off, therefore the actual average reduction is between 12% and 29%. […] Mut MEFs were incubated or not for 24 hours with 10 μM of the indicated compound, washed and stained with Crystal Violet. Shown is average absorbance at 570 nm normalized (%) to non-treated cells of 3 independent experiments ±SEM, * p=0.0003. […] Mut MEFs were incubated or not for 24 hours with 10 μM of the indicated compound, washed and stained with JC1 and Hoechst followed by image-based single-cell analysis. […]
To assay the compounds, cellROX, a reactive oxygen species (ROS) fluorescent detector and a preferred in-situ mitochondrial content detector, was used for single cell-based imaging analysis as detailed previously (Raini et al., 2017). […] Compounds toxicity was evaluated by testing cell survival following 24 hours incubation with 10 μM of each compound using crystal violet staining (FIG. 14B). […] The other 19 compounds were not toxic; therefore, maximal working concentrations tolerated by the cells were further evaluated (Table 3 hereinbelow).

Mut astrocytes = assay: Survival under Tunicamycin-induced ER stress, Crystal Violet, astrocytes; assay type: cell-based, mouse; conditions: 20-50 μM, 50 ng/ml Tunicamycin last 22 hours (FIG. 19)
Method: WT and Mut astrocytes were treated or not for 24 hours with 20, 30 or 50 μM of the indicated Sig-1R binders in the presence of 50 ng/ml Tunicamycin (Tun) during the last 22 hours. Following, the cells were washed, fixated and stained with Crystal Violet (CV) followed by measurement of absorbance at 570 nm. Shown is % of CV staining relative to cells not treated with tunicamycin nor Sig-1R binder ±SEM of 3 independent experiments, *p<0.05.
as §1

WT astrocytes = assay: Cell survival assay, Crystal violet staining, WT astrocytes; assay type: cell-based, mouse; conditions: 24 hours, untreated cells set to 100%
Method: as §1

## Cc1cccc(OCCCCCN2CCOCC2)c1 [H8 (p8G5), 4-[5-(3-methylphenoxy)pentyl]morpholine]
Mut MEFs; 0.1 μM
  Survival (%) ± SEM Mut MEFs: 104 ± 4.6%
Mut MEFs; 1 μM
  Survival (%) ± SEM Mut MEFs: 102 ± 3.3%
Mut MEFs; 10 μM
  Survival (%) ± SEM Mut MEFs: 99 ± 2.6%
Mut MEFs; 30 μM
  Survival (%) ± SEM Mut MEFs: 105 ± 13%
Mut MEFs; as high as 30 μM (FIG. 4, Table 3)
  effect on survival of Mut cells: did not have any negative effect on the survival
[1]
  level of ROS (CellROX) in Mut cells: corrected the abnormal level of ROS
Mut astrocytes
  survival rate of Mut astrocytes under ER-stress conditions: increased the survival rate
WT astrocytes; 1 μM
  Survival (%) ± SEM WT astrocytes: 132 ± 10.7%
WT astrocytes; 10 μM
  Survival (%) ± SEM WT astrocytes: 102 ± 3.8%
WT astrocytes; 30 μM
  Survival (%) ± SEM WT astrocytes: 99 ± 3.2%
